Values quoted from earlier work as cited in US8470366B2, “Nicotine containing soft gelatin pastilles” (priority 2010, dated 2013).

Experiments:
[1] = background statement
[2] = background statement; remark: listed apart in the source

Compound | Physiological activity relative to (−) nicotine [1] | Half life of nicotine in the body [2]
CN1CCCC1c1cccnc1 (single isomer, unassigned; (+)) [(+) nicotine] | one-half | –
CN1CCCC1c1cccnc1 (centres unmarked) [nicotine, Nicotine] | – | around two
